# Numbering of substitutions follows the chain as printed. Counter-ions that a name gives are not always drawn.
# Columns and labels:
# Type in all cases: cell-based
# TPα [1] = molecular target: T1, TPα (Homo sapiens, UniProt P21731); experiment: Intracellular calcium mobilization, HEK.TPα cells; conditions: for secondary U46619 [Ca2+]i response relative to primary response: TPα
# T1 construct: expressed in transfected cells
# T1 sequence (P21731 1-343): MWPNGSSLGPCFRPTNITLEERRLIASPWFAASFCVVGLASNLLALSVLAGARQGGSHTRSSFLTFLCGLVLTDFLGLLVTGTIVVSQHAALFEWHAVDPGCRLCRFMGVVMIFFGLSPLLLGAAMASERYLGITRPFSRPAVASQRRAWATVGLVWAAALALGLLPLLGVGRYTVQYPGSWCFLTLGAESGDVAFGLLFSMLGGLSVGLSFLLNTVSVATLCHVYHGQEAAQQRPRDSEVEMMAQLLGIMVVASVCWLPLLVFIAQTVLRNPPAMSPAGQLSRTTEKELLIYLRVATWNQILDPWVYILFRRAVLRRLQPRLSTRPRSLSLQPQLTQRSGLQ
# Description: (§1) Measurement of intracellular calcium mobilization ([Ca^2+]i) in FURA2/AM preloaded HEK 293 cell lines (2 × 10^6 cells/dish), each transiently co-transfected with pADVA (10 μg), and pCMV:Gαq (25 μg), was carried out as previously described. To investigate the effect of GRK2/βARK1 on TP-mediated [Ca^2+]i mobilization, HEK.TPα or HEK.TPβ cells (2 × 10^6 cells/dish) were co-transfected with pADVA (10 μg), pCMV:Gαq (25 μg) along with pRK5:βARK1^495–689 (25 μg), encoding a dominant negative form of GRK2/βARK1[39]. Approximately 48 h post-transfection, cells were harvested by scraping, washed twice in ice-cold PBS and resuspended in HBSSHB (modified Ca^2+/Mg^2+-free Hank's buffered salt solution, containing […], pH 7.67, 0.1% bovine serum albumin (BSA)) buffer at 10^7 cells/ml and incubated in the dark with 5 μM FURA2/AM for 45 min at 37 °C. Cells were collected by centrifugation (900×g, 5 min), washed once in an equal volume of HBSSHB, and were finally resuspended in HBSSHB buffer at 10^7 cells/ml and kept at room temperature in the dark for 40 min. For each measurement of [Ca^2+]i mobilization, aliquots of cells were diluted to 0.825 × 10^6 cells/ml in HBSSHB, 1 mM CaCl2 and FURA2 fluorescence was recorded (2 ml aliquots of cells) at 37^ °C with gentle stirring with a Perkin Elmer-Cetus LS50-B spectrofluorometer at excitation wavelengths of 340 nm and 380 nm and emission wavelength of 510 nm, respectively.
# […] To assess agonist-mediated homologous desensitization, cells (0.825 × 10^6 cells/ml; 2 ml per assay) were stimulated with 1 μM U46619 (Primary stimulation) or, as a control, with the vehicle for 4 min; thereafter, cells were collected by centrifugation (900×g, 5 min); were washed twice in 2 ml HBSSHB, 1 mM CaCl2; and finally resuspended in 2 ml HBSSHB,1 mM CaCl2 and were left to recover over various time intervals (ranging from 0 to 60 min); thereafter, cells re-stimulated with 1 μM U46619 (Secondary stimulation) and changes in [Ca^2+]i mobilization were monitored as a function of time. To assess the role of protein kinase (PK) A, PKC or PKG on U46619-mediated desensitization of TPα signalling, cells were pre-incubated with the PKA inhibitor H-89 (10 μM), the PKC inhibitor GF 109203X (50 nM) or the PKG inhibitor KT 5823 (50 nM), for 15 min and respective kinase inhibitors were maintained throughout the primary/secondary U46619-stimulations and during the washes.
# (§2) The vehicle had no effect on U46619-mediated [Ca^2+]i mobilization. Calibration of the signal was performed in each sample by adding 0.2% Triton X-100 to obtain the maximal fluorescence ratio (Rmax) and then 1 mM EGTA to obtain the minimal fluorescence ratio (Rmin). The ratio of the fluorescence at 340 nm to that at 380 nm is a measure of [Ca^2+]i, which assumes a Kd of 225 nM Ca^2+ for FURA2/AM. The results presented in the figures are representative data from at least three or four independent experiments and are plotted as changes in Ca^2+i mobilized (Δ[Ca^2+]i (nM)) as a function of time (s) upon ligand stimulation. Changes in [Ca^2+]i mobilization were determined by measuring peak rises in [Ca^2+]i mobilized (Δ[Ca^2+]i) and were calculated as mean changes in Δ[Ca^2+]i ± S.E.M. (nM).
# TP^Δ328 = molecular target: T2, TP^Δ328 (Homo sapiens, UniProt P21731); experiment: Intracellular calcium mobilization, HEK.TP^Δ328 cells; conditions: HEK.TP^Δ328
# T2 construct: expressed in transfected cells
# T2 sequence (P21731 1-328): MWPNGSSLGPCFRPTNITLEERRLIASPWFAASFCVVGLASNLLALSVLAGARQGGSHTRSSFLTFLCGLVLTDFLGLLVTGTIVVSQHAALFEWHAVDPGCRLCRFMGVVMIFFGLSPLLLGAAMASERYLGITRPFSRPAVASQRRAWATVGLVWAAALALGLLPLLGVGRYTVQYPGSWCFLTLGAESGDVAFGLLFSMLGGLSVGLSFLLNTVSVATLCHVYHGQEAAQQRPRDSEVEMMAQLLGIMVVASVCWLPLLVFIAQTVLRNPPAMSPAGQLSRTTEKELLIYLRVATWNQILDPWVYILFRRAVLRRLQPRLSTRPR
# Description: as §1
# (§3) Cells were stimulated with the TP agonist U46619 (1 μM) and changes in [Ca^2+]i mobilization were monitored as a function of time. To assess agonist-mediated homologous desensitization, cells (0.825 × 10^6 cells/ml; 2 ml per assay) were stimulated with 1 μM U46619 (Primary stimulation) or, as a control, with the vehicle for 4 min; thereafter, cells were collected by centrifugation (900×g, 5 min); were washed twice in 2 ml HBSSHB, 1 mM CaCl2; and finally resuspended in 2 ml HBSSHB,1 mM CaCl2 and were left to recover over various time intervals (ranging from 0 to 60 min); thereafter, cells re-stimulated with 1 μM U46619 (Secondary stimulation) and changes in [Ca^2+]i mobilization were monitored as a function of time. To assess the role of protein kinase (PK) A, PKC or PKG on U46619-mediated desensitization of TPα signalling, cells were pre-incubated with the PKA inhibitor H-89 (10 μM), the PKC inhibitor GF 109203X (50 nM) or the PKG inhibitor KT 5823 (50 nM), for 15 min and respective kinase inhibitors were maintained throughout the primary/secondary U46619-stimulations and during the washes.
# as §2
# TPα^S331A = molecular target: T3, TPα^S331A (Homo sapiens, UniProt P21731, S331A); experiment: Agonist-mediated TP phosphorylation in whole cells, HEK.TPα^S331A
# T3 construct: expressed in transfected cells
# T3 sequence (P21731 1-343 S331A): T1 sequence (P21731 1-343) with S331A
# Description: (§4) Agonist-mediated TP phosphorylation in whole cells (1.8–2 × 10^6 cells/10 cm dish) was performed essentially as previously described. Briefly, cells were transiently co-transfected with pADVA (10 μg), pCMV:Gαq (25 μg) plus pcDNA:βArrestin2 (25 μg) approximately 48 h prior to labelling. Thereafter, cells were washed once in phosphate-free DMEM, 10% dialysed FBS and were metabolically labelled for 60 min in the same medium (2 ml/10 cm dish) containing 100 μCi/ml [^32P] orthophosphate (8000–9000 Ci/mmol) at 37 °C, 5% CO2. Where appropriate, the PKG kinase inhibitor KT 5823 (50 nM) or its vehicle was added during the labelling period. Thereafter, U46619 (1 μM) or an equivalent volume of vehicle (0.01% ethanol in HBS; 20 μl) were added and cells were incubated for 10 min at 37 °C, 5% CO2. Reactions were terminated by transferring the dishes to ice and aspirating the labelled medium and HA-epitope tagged TP receptors were processed and immunoprecipitated using the anti-HA 101R antibody as previously described. Electroblots were then exposed to Xomat XAR (Kodak) film to detect ^32P-labelled proteins. Thereafter, blots were subject to phosphorimage analysis, and the intensities of agonist-induced phosphorylation were expressed in arbitrary units relative to basal (vehicle-stimulated) levels. In parallel experiments, cells were incubated under identical conditions in the absence of [^32P] orthophosphate; HA-tagged TP receptors were immunoprecipitated from the same cell lines using the anti-HA 101R antibody and immunoblots were screened using the anti-HA 3F10 horseradish peroxidase-conjugated antibody.
# TPα [2] = molecular target: T1, TPα; experiment: Agonist-mediated TP phosphorylation in whole cells, HEK.TPα
# Description: as §4
# TPβ [3] = molecular target: T4, TPβ (Homo sapiens, UniProt P21731); experiment: Intracellular calcium mobilization, HEK.TPβ cells; conditions: for effect of inhibitor on U46619-induced [Ca2+]i mobilization by TPβ: inhibitor pre-incubated 15 min, primary/secondary U46619 stimulation
# T4 construct: expressed in transfected cells
# T4 sequence (P21731 1-407 isoform P21731-2): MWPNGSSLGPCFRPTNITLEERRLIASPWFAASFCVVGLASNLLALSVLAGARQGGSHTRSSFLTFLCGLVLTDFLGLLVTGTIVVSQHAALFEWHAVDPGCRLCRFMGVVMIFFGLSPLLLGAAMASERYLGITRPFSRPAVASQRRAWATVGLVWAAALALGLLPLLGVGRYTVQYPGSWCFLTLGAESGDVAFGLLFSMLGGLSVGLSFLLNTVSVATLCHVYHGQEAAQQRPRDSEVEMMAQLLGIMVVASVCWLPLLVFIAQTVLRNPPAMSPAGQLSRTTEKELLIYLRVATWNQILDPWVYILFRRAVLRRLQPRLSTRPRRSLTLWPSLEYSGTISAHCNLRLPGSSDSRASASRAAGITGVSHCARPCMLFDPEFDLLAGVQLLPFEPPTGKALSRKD
# TPβ [4] = molecular target: T4, TPβ; experiment: Intracellular calcium mobilization, HEK.TPβ cells
# Description: as §1, §3, §2
# [5] = 1 μM U46619 plus 50 nM KT 5823 pre-incubation
smiles,measurement,setting,value
"CN(C)CCCn1cc(C2=C(c3c[nH]c4ccccc34)C(=O)NC2=O)c2ccccc21 [GF 109203X, 2-[1-(3-dimethylaminopropyl)-1H-indol-3-yl]-3-(1H-indol-3-yl)-maleimide]","Δ[Ca2+]i, U46619-induced","TPα [1]; HEK.TPα, primary 1 μM U46619 in presence of 50 nM GF 109203X",250 ± 12 nM
same,"Δ[Ca2+]i, U46619-induced","TPα [1]; HEK.TPα, secondary 1 μM U46619 at 15 min in presence of 50 nM GF 109203X",90 ± 8 nM
same,secondary U46619 [Ca2+]i response relative to primary response,TPα [1]; in presence of GF 109203X (50 nM),36%
same,"Δ[Ca2+]i, U46619-induced",TP^Δ328; primary 1 μM U46619 in presence of 50 nM GF 109203X,200 ± 9.8 nM
same,"Δ[Ca2+]i, U46619-induced",TP^Δ328; secondary 1 μM U46619 at 15 min in presence of 50 nM GF 109203X,200 ± 12 nM
"Cl.Cl.O=S(=O)(NCCNCC=Cc1ccc(Br)cc1)c1cccc2cnccc12 [H-89, N-[2-((p-bromocinnamyl)amino)ethyl]-5-isoquino-linesulfonamide, 2HCL]",effect of inhibitor on [Ca2+]i mobilization in response to primary or secondary U46619,"TPα [1]; HEK.TPα, H-89 10 μM pre-incubation",no significant effect
same,"Δ[Ca2+]i, U46619-induced","TPα [1]; HEK.TPα, primary 1 μM U46619 in presence of 10 μM H-89",220 ± 9.2 nM
same,"Δ[Ca2+]i, U46619-induced","TPα [1]; HEK.TPα, secondary 1 μM U46619 at 15 min in presence of 10 μM H-89",0 nM
same,effect of inhibitor on [Ca2+]i mobilization in response to primary or secondary U46619,TP^Δ328; H-89 10 μM pre-incubation,no significant effect
same,"Δ[Ca2+]i, U46619-induced",TP^Δ328; primary 1 μM U46619 in presence of 10 μM H-89,180 ± 10 nM
same,"Δ[Ca2+]i, U46619-induced",TP^Δ328; secondary 1 μM U46619 at 15 min in presence of 10 μM H-89,165 ± 8 nM
COC(=O)[C@@]1(OC)C[C@H]2O[C@]1(C)n1c3ccccc3c3c4c(c5c6ccccc6n2c5c31)C(=O)N(C)C4 [KT 5823],"Δ[Ca2+]i, U46619-induced","TPα [1]; HEK.TPα, primary 1 μM U46619 in presence of 50 nM KT 5823",160 ± 7.9 nM
same,"Δ[Ca2+]i, U46619-induced","TPα [1]; HEK.TPα, secondary 1 μM U46619 at 15 min in presence of 50 nM KT 5823",60 ± 7 nM
same,secondary U46619 [Ca2+]i response relative to primary response,TPα [1]; in presence of KT 5823 (50 nM),approximately 38%
same,U46619-mediated TPα^S331A phosphorylation relative to basal (vehicle),TPα^S331A; [5],1.5 fold
same,effect on agonist-induced phosphorylation of TPα^S331A,TPα^S331A; preincubation with KT 5823,not significantly affected
same,U46619-mediated TPα phosphorylation relative to basal (vehicle),TPα [2]; [5],2 fold
same,reduction of agonist-induced TPα phosphorylation,"TPα [2]; pre-incubation with KT 5823, 1 μM U46619",2.5 fold
same,effect of inhibitor on U46619-induced [Ca2+]i mobilization by TPβ,TPβ [3],no significant effect
same,"Δ[Ca2+]i, U46619-induced",TPβ [3]; primary 1 μM U46619 in presence of 50 nM KT 5823,170 ± 25 nM
same,"Δ[Ca2+]i, U46619-induced",TPβ [3]; secondary 1 μM U46619 at 15 min in presence of 50 nM KT 5823,0 nM
"COC(=O)[C@@H](N)CCCNC(N)=N[N+](=O)[O-] [L-NAME, NG-Nitro-L-arginine Methyl Ester, Hydrochloride]","Δ[Ca2+]i, U46619-induced","TPα [1]; HEK.TPα, primary 1 μM U46619 in presence of 1 μM L-NAME",200 ± 9 nM
same,"Δ[Ca2+]i, U46619-induced","TPα [1]; HEK.TPα, secondary 1 μM U46619 at 15 min in presence of 1 μM L-NAME",80 ± 5.9 nM
same,effect of inhibitor on U46619-induced [Ca2+]i mobilization by TPβ,TPβ [3],no significant effect
same,"Δ[Ca2+]i, U46619-induced",TPβ [4]; primary 1 μM U46619 in presence of 1 μM L-NAME,220 ± 40 nM
same,"Δ[Ca2+]i, U46619-induced",TPβ [4]; secondary 1 μM U46619 at 15 min in presence of 1 μM L-NAME,0 nM
"O=C1C(Nc2ccccc2)=CC(=O)c2ncccc21 [LY 83583, 6-Anilino-5,8-quinolinequinone]","Δ[Ca2+]i, U46619-induced","TPα [1]; HEK.TPα, primary 1 μM U46619 in presence of 1 μM LY 83583",210 ± 12 nM
same,"Δ[Ca2+]i, U46619-induced","TPα [1]; HEK.TPα, secondary 1 μM U46619 at 15 min in presence of 1 μM LY 83583",58 ± 6 nM
same,effect of inhibitor on U46619-induced [Ca2+]i mobilization by TPβ,TPβ [3],no significant effect
same,"Δ[Ca2+]i, U46619-induced",TPβ [4]; primary 1 μM U46619 in presence of 1 μM LY 83583,185 ± 26 nM
same,"Δ[Ca2+]i, U46619-induced",TPβ [4]; secondary 1 μM U46619 at 15 min in presence of 1 μM LY 83583,0 nM

# Reference: PMC2680961, “Homologous desensitization of signalling by the alpha (α) isoform of the human thromboxane A2 receptor: A specific role for nitric oxide signalling” (Biochimica et Biophysica Acta, 2007)
